Assay results taken from publication PMC4019466, “RNA Mimicry by the Fap7 Adenylate Kinase in Ribosome Biogenesis” (PLoS Biology, 2014).

Experiments:
yFap7 [1] = target: T1, yFap7 (Saccharomyces cerevisiae, UniProt Q12055); test: native gel electrophoresis with radiolabelled ATP; format: binding; conditions: 30 µM yFap7, 0.1 mM [γ-32P]ATP, AMP-PNP 0.1 or 1 mM
T1 construct: gene FAP7; full-length, His-tagged, pRSF-DUET, expressed in E. coli Rosetta 2DE3; calculated monomer mass 23,916 (SAXS sample)
T1 sequence (Q12055 1-197): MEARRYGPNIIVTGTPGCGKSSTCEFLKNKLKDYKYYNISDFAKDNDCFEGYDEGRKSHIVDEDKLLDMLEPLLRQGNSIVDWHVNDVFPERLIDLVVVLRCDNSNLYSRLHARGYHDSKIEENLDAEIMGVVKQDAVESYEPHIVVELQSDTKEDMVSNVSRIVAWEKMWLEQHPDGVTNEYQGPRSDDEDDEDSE

aFap7–aRps14 complex [2] = target: T2, aFap7–aRps14 complex (Pyrococcus abyssi, UniProt Q9UZK4); test: X-ray crystal structure, […] Å; conditions: Mg2+; ATP binding pocket of aFap7; pH 8.5, 18 °C
T2 construct: gene PYRAB11420; co-expressed from polycistronic pET21, N-terminal 6xHis on Fap7, E. coli Rosetta 2DE3; 1:1 complex, calculated mass 36,272; with Small ribosomal subunit protein uS11 (30S ribosomal protein S11)

yFap7 [3] = target: T1, yFap7; test: adenylate kinase assay coupled to pyruvate kinase / lactate dehydrogenase, NADH at […] nm; format: biochemical; conditions: 5 mM MgCl2, pH 7.5, 30 °C; co-substrate ATP
aFap7–aRps14 complex [4] = target: T2, aFap7–aRps14 complex; test: X-ray crystal structure, […] Å; conditions: Mg2+; ATP binding pocket of aFap7; pH 8.5, 18 °C; two of four aFap7 copies hold ATP, two ADP
yFap7–yRps14 complex = target: T3, yFap7–yRps14 complex (Saccharomyces cerevisiae, UniProt Q12055); test: adenylate kinase assay coupled to pyruvate kinase / lactate dehydrogenase, NADH at […] nm; format: biochemical; conditions: 0.3 mM AMP, 5 mM MgCl2, pH 7.5, 30 °C; preformed complex
T3 construct: gene FAP7; co-expressed from polycistronic pET21, N-terminal 6xHis on Fap7, E. coli Rosetta 2DE3; 1:1 complex, calculated mass 38,447; with Small ribosomal subunit protein uS11 (40S ribosomal protein S14)

MBP-yRps14 [5] = target: T4, MBP-yRps14 (Saccharomyces cerevisiae, UniProt P06367 1-137); test: filter binding; 300 mM KCl, 5 mM Mg2+, HEPES pH 8.0; Filter binding: 30 mM Tris-HCl pH 8.0, 150 mM KCl, 6 mM MgCl2, 60 ug/ml E. coli tRNA, 20 C, 15 min, 10 fmol RNA (Fig S4D: 20 mM HEPES pH 8.0, 300 mM KCl, 5 mM MgCl2, 20 C); pull-down: IP buffer (300 mM KCl, 50 mM Hepes pH 7.5, 0.5 mM EDTA, 1 mM DTT, 10% glycerol as given for bead preparation), 5 mM MgCl2 where stated; conditions: protein: recombinant; tags: MBP (pETM41; His-tag purification); (radioactively labeled); hairpin
MBP-yRps14 [6] = target: T4, MBP-yRps14; test: filter binding; 6 mM Mg2+, 150 mM KCl, E. coli tRNA 60 ug/ml; Filter binding: 30 mM Tris-HCl pH 8.0, 150 mM KCl, 6 mM MgCl2, 60 ug/ml E. coli tRNA, 20 C, 15 min, 10 fmol RNA (Fig S4D: 20 mM HEPES pH 8.0, 300 mM KCl, 5 mM MgCl2, 20 C); pull-down: IP buffer (300 mM KCl, 50 mM Hepes pH 7.5, 0.5 mM EDTA, 1 mM DTT, 10% glycerol as given for bead preparation), 5 mM MgCl2 where stated; conditions: protein: recombinant; tags: MBP (pETM41; His-tag purification); (radioactively labeled); hairpin
yFap7 [7] = target: T5, yFap7 (Saccharomyces cerevisiae, UniProt Q12055 1-197); test: filter binding; up to 3.6 uM protein; 6 mM Mg2+, 150 mM KCl; Filter binding: 30 mM Tris-HCl pH 8.0, 150 mM KCl, 6 mM MgCl2, 60 ug/ml E. coli tRNA, 20 C, 15 min, 10 fmol RNA (Fig S4D: 20 mM HEPES pH 8.0, 300 mM KCl, 5 mM MgCl2, 20 C); pull-down: IP buffer (300 mM KCl, 50 mM Hepes pH 7.5, 0.5 mM EDTA, 1 mM DTT, 10% glycerol as given for bead preparation), 5 mM MgCl2 where stated; conditions: protein: recombinant; tags: His; (radioactively labeled); hairpin
T5 sequence: T1 sequence (Q12055 1-197)

purified protein = substrate: Nc1ncnc2c1ncn2[C@@H]1O[C@H](COP(=O)(O)OP(=O)(O)OP(=O)(O)O)[C@@H](O)[C@H]1O; test: purified protein; format: biochemical, Saccharomyces cerevisiae; conditions: 0.3 mM AMP, 5 mM MgCl2, 60 mM KCl, 100 mM Tris-HCl pH 7.5, 30 °C, ATP 0.01–1 mM

## Nc1ncnc2c1ncn2[C@@H]1O[C@H](COP(=O)(O)OP(=O)(O)NP(=O)(O)O)[C@@H](O)[C@H]1O [AMPPNP]
yFap7 [1]
  native gel electrophoresis with radiolabelled ATP: Fap7 binds AMPPNP and ATP−Mg with the same (AMPPNP) or a slightly lower

## Nc1ncnc2c1ncn2[C@@H]1O[C@H](COP(=O)(O)OP(=O)(O)O)[C@@H](O)[C@H]1O [ADP]
aFap7–aRps14 complex [2]
  X-ray crystal structure, 2.12 Å: 4cwn and 4cw7 for the ADP- and ATP-bound structures

## Nc1ncnc2c1ncn2[C@@H]1O[C@H](COP(=O)(O)O)[C@@H](O)[C@H]1O [AMP]
yFap7 [3]
  adenylate kinase assay coupled to pyruvate kinase / lactate dehydrogenase, NADH: the AK activity of yFap7 with respect to AMP

## Nc1ncnc2c1ncn2[C@@H]1O[C@H](COP(=O)(O)OP(=O)(O)OP(=O)(O)O)[C@@H](O)[C@H]1O [ATP]
aFap7–aRps14 complex [4]
  X-ray crystal structure, 2.45 Å: In the ATP-bound crystal form, two copies of aFap7 are bound by ATP
yFap7–yRps14 complex
  adenylate kinase assay coupled to pyruvate kinase / lactate dehydrogenase, NADH: yFap7–yRps14 complex showed almost complete inhibition of the Fap7 AK activity

B1: Helix 23 of 18S rRNA (H23) (structured_RNA)
RNA: GGGAGUAUUCAAUUGUCAGAGGUGAAAUUCUUGGAUUUAUUGAAGAGU
MBP-yRps14 [5]
  Kd: 34.9 ± 0.95 µM
MBP-yRps14 [6]
  Kd: 1.5 ± 0.15 µM
yFap7 [7]
  binding result: no binding

B2: yFap7 (Saccharomyces cerevisiae S288C) (protein)
chain: T1 sequence (Q12055 1-197)
notes: full-length, His-tagged, pRSF-DUET, expressed in E. coli Rosetta 2DE3; calculated monomer mass 23,916 (SAXS sample)
Purified protein
  Km: 52 µM
  kcat: 0.00612 s⁻¹
